Data reported in patent US20250163056A1, “NONMUSCLE MYOSIN II INHIBITORS” (The University of Florida Research Foundation, Inc., priority 2018, published 2025).

Columns and labels:
[1] = target: Bovine cardiac myosin (Bos taurus (Bovine), UniProt Q9BE39); assay: Cardiac muscle myosin II actin-activated ATPase assay (NADH-coupled); type: biochemical; design: key to Ratio CMMII:NMII Ki/EC50: NMII-sel: no Ki value for cardiac myosin II could be determined; the compounds had no detectable inhibitory properties versus the cardiac myosin II; details: for Ratio CMMII:NMII Ki/EC50: cardiac myosin II Ki over nonmuscle myosin II EC50; for Ki: 300 nM cardiac myosin, 10 μM actin, 25° C., read-out: CMMII KI
Source text: (§1) The cardiac muscle myosin II actin-activated ATPase assay is a biochemical assay. Specifically, it is an NADH (nicotinamide adenine dinucleotide)-coupled ATPase assay that relies on NADH fluorescence as a readout. Cardiac myosin is a mechanochemical energy transducer that hydrolyzes ATP to generate force in the presence of its activator, F-actin. The resulting ADP is regenerated to ATP by pyruvate kinase (PK) that transforms one molecule of phosphoenolpyruvate (PEP) to pyruvate in parallel. Subsequently, pyruvate is reduced to lactate by lactate dehydrogenase (LDH) that, in turn, oxidizes one molecule of NADH to NAD. Therefore, the decrease in NADH concentration as a function of time equals the ATP hydrolysis rate. Bovine cardiac myosin is obtained from a commercial source, Cytoskeleton. PK, LDH, ATP, PEP, and NADH are obtained from Sigma. F-actin is prepared in house from Rabbit Muscle Acetone Powder. The assay is run at 25° C. in 384 well black-wall polystyrene microplates with a total volume of 20 μl per well. NADH fluorescence is monitored for 30 minutes with an EnVision Multimode Plate Reader. The slope of the fluorescence response, which is proportional to the reaction rate, is determined by simple linear regression. Final assay conditions are 300 nM cardiac myosin, 10 μM actin, 40 U/ml LDH, 200 U/ml PK, 220 μM NADH, 1 mM PEP, 1 mM ATP in a buffer containing 10 mM 3-(N-morpholino)propanesulfonic acid (pH=7.0), 2 mM MgCl2, 0.15 mM ethylene glycol-bis(p-aminoethyl ether)-N,N,N′,N′-tetraacetic acid, 0.1 mg/mL bovine serum albumin, 0.5% (V/V) dimethyl sulfoxide (DMSO) and 1 mM dithiothreitol. Prior to testing the inhibitory activity of the compounds, a two-fold dilution series starting at 10 mM compound concentration is prepared in DMSO. Subsequently, 100 nl is transferred to each well of the measuring plate containing a mixture of myosin, LDH and PK. The enzymatic reaction is started with the addition of a mixture containing ATP, PEP, NADH and actin. The highest final compound concentration is 50 uM. 20 μM para-aminoblebbistatin in 0.5% DMSO serves as the positive control and 0.5% DMSO alone is the negative control. Reaction rates are determined by using the fluorescence responses of a dilution series of NADH included in all plates and plotted as a function of inhibitor concentration. All measurements are carried out in triplicate. Inhibitory constants are determined by fitting the 16 point dose-response data to a quadratic equation corresponding to a simple one-to-one binding model.

[2] = Photostability, percentage remaining undegraded under illumination or in the dark; details: for Photostability 4 hours: percentage remaining undegraded after 4 hours illumination; for Photostability 24 hours: percentage remaining undegraded after 24 hours illumination; for Photostability Dark (24 h): percentage remaining undegraded in the dark
[3] = target: Rabbit skeletal myosin; assay: Skeletal muscle myosin II actin-activated ATPase assay; type: biochemical; details: 20 nM skeletal muscle myosin II; read-out: SKMMII KI
Source text: as §1
The skeletal muscle myosin II actin-activated ATPase assay is performed the same as for cardiac muscle myosin II with the following exceptions: Rabbit skeletal myosin is obtained from Cytoskeleton and the final assay conditions contain 20 nM skeletal muscle myosin II.

Sequence of Bovine cardiac myosin (Q9BE39 whole entry): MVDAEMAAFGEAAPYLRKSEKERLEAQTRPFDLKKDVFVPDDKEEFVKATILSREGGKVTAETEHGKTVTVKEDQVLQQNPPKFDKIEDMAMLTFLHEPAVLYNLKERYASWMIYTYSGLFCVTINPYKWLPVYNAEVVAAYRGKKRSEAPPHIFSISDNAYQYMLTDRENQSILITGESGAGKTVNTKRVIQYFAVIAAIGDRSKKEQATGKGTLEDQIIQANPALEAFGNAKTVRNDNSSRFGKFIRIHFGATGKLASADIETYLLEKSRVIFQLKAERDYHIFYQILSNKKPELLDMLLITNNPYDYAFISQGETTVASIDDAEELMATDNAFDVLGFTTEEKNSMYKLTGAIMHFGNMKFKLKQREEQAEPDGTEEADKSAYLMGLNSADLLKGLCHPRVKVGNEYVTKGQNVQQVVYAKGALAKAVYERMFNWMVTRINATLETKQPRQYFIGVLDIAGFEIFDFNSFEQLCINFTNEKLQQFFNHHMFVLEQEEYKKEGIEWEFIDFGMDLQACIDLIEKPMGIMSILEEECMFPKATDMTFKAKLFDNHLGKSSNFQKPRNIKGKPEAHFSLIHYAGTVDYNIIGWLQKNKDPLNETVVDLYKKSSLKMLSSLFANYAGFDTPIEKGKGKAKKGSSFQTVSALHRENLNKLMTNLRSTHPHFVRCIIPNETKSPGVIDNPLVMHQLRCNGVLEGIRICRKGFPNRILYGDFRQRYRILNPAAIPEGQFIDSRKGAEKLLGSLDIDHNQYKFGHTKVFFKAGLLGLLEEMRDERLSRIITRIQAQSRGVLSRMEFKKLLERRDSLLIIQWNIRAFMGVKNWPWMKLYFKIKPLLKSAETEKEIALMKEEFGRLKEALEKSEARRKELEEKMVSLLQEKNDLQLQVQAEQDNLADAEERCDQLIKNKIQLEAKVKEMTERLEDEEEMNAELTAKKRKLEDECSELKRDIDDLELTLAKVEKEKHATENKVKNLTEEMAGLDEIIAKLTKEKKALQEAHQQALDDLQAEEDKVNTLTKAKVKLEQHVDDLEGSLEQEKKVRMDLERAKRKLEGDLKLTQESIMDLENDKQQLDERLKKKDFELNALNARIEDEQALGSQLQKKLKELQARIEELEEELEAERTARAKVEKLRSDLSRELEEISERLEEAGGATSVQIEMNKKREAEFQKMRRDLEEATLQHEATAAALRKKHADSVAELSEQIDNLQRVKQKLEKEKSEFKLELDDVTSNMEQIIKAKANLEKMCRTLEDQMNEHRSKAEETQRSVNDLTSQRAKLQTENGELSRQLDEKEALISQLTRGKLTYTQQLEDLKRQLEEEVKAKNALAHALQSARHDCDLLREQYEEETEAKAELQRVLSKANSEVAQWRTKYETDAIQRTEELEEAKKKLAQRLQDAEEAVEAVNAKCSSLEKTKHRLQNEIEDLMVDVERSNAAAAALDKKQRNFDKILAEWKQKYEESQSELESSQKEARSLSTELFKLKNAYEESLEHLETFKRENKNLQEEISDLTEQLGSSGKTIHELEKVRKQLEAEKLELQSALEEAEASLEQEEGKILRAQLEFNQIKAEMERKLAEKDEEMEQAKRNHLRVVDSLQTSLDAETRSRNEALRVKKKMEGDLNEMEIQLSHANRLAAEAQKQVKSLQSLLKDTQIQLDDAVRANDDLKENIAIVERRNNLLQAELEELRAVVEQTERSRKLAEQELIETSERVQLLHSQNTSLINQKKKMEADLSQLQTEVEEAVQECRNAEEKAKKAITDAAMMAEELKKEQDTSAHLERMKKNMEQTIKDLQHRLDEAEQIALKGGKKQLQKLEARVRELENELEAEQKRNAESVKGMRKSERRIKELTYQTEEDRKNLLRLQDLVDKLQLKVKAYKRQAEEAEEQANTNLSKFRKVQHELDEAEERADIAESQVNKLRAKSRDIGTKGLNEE
Sequence of Bovine cardiac myosin (P85100 whole entry partner): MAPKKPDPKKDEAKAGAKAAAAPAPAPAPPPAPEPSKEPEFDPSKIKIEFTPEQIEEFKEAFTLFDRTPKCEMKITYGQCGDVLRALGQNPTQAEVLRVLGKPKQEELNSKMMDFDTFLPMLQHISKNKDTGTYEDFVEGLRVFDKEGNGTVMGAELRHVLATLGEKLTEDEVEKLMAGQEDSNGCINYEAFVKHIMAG
Sequence of Bovine cardiac myosin (Q3SZE5 whole entry partner): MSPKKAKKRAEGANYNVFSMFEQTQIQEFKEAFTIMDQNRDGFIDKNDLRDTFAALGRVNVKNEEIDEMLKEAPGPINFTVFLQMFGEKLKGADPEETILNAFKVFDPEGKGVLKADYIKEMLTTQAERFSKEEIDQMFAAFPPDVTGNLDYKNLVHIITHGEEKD

Compound	Ratio CMMII:NMII Ki/EC50 [1]	Photostability 4 hours [2]	Photostability 24 hours [2]	Photostability Dark (24 h) [2]	Ki [1]	Ki [3]
Cc1ccc2c(c1)C(=O)[C@@]1(O)C(=N2)N(c2ccccc2)CC1(C)C [BPN-0026282]	NMII-sel	64.0%	7.0%	>99%		
CCC1=CC2N=C3N(c4ccc5ncccc5c4)CC[C@@]3(O)C(=O)C2S1 (stereo partly shown) [BPN-0028625]	56.6	84.4%	84.6%	81.8%	300 µM	8.9 µM
Cc1ccc2c(c1)C(=O)[C@]1(O)CCN(c3ccc(C#N)c(Cl)c3)C1=N2 [BPN-0026394]	NMII-sel	>99%	98.7%	>99%		4.8 µM
CCc1cc2c(s1)N=C1N(c3ccc(C#N)c(C)c3)CC[C@@]1(O)C2=O [BPN-0026848]	12.3	>99%	98.7%	>99%	320 µM	61 µM
Cc1cc2c(cc1C)C(=O)[C@]1(O)CCN(c3ccc4scnc4c3)C1=N2 [BPN-0027121]	7.6	75.6%	6.5%	98.6%	19 µM	2.7 µM
Cc1cc2c(cc1F)C(=O)[C@]1(O)CCN(c3ccc(C)c(Cl)c3)C1=N2 [BPN-0026606]	NMII-sel	85.9%	4.1%	95.5%		
Cc1cccc(N2CC[C@@]3(O)C(=O)c4cc(C)c(C(F)(F)F)cc4N=C23)c1 [BPN-0026847]	NMII-sel	99.0%	91.8%	>99%		
O=C1c2c(sc3c2CCCC3)N=C2N(c3ccc4ncccc4c3)CC[C@@]12O [BPN-0027240]	NMII-sel	94.1%	74.6%	98.0%		
Cc1ncc(N2CC[C@@]3(O)C(=O)c4cc(C(F)(F)F)ccc4N=C23)s1 [BPN-0026404]	7.0				23 µM	3.6 µM
Cc1ccc(N2CC[C@@]3(O)C(=O)c4cc(C)c(C(F)(F)F)cc4N=C23)cc1Cl [BPN-0026786]	NMII-sel	87.8%	66.6%	96.0%		
Cc1ccc(N2CC[C@@]3(O)C(=O)c4cc(Cl)ccc4N=C23)cc1 [BPN-0026609]	3.7				5.5 µM	0.43 µM
COc1cc(N2CC[C@@]3(O)C(=O)c4cc(C)ccc4N=C23)ccn1 [BPN-0025919]	4.6				18 µM	1.8 µM
